Measured values taken from patent publication US6407288B1, “Naphthylsalicylanilides as antimicrobial and antiinflammatory agents” (The Research Foundation of State University of New York, priority 2000, dated 2002).
Converted amounts (≈) assume the structure as drawn.

Each compound was assayed on Str. pn (assay: Mean Streptococcus MIC). Conditions: Streptococcus; Table 5, mean.
Assay type: cell-based
Protocol: (§1) The MIC's for the compounds were determined by a modified microdilution tube dilution method described in “Methods for Dilution Antimicrobial Susceptibility Tests for Bacteria that Grow Aerobically” (National Committee for Clinical Laboratory Standards Approved Standards, 1997, NCCLS document M7-A4). In general the modifications were made because of the unique growth requirements for the fastidious oral organisms and for those bacteria that require anaerobic conditions. Reference is also made to “Methods for Antimicrobial Susceptibility of Anaerobic Bacteria” (National Committee for Clinical Laboratory Standards Approved Standards, 1997, NCCLS document M11-A4).
(§2) Briefly, the methods were as follows. Cultures were grown for 18-24hrs (aerobic bacteria) or 48-72 hrs (anaerobic bacteria) in the appropriate medium. For aerobic bacteria full strength brain heart infusion medium (BHI, Difco) was used. For anaerobic bacteria, half strength BHI (18.5 g/L) was supplemented by adding yeast extract (10 g/L), hemin (0.29 mL of a stock solution containing 0.1 g/200 mL dH2O) and menadione (15 mL of a stock solution containing 0.15 mL in 30 mL 95% EtOH) was used. Initial cultures were diluted to approximately 1×10^8 CFU/mL for use as an inoculum. Each assay received 10 μL of the inoculum. The drugs were prepared from a stock solution contained in dimethyl sulfoxide (DMSO) and diluted into the culture medium. Final concentrations of the drugs ranged from 50 to 0.05 μg/assay. The tests were run in duplicate and were incubated appropriately with regard to oxygen requirements for 24 to 48 hrs as required. Anaerobic incubation was an atmosphere of 5% CO2, 10% H2, with the balance N2. The lowest concentration of an antimicrobial agent at which no visible growth is noted was referred to as the MIC.
(§3) This embodiment illustrates the efficacy of the compounds of the present invention against Streptococcus strains. One of the strains, Str.pn.R was obtained from the Children's Hospital in Buffalo (strain 00-041-0614). […] The sensitivity of this strain was tested against several known antibiotics.

SMILES	MIC
CCCCc1ccc(C(=O)c2ccc(O)c(C(=O)Nc3cccc(C(F)(F)F)c3)c2)cc1 [BBAmF, reference compound]	0.45 µg/mL (≈ 1.02 µM)
N#Cc1cccc(NC(=O)c2cc(C(=O)c3ccc(-c4ccccc4)cc3)ccc2O)c1 [BPAmC, reference compound]	0.58 µg/mL (≈ 1.39 µM)
O=C(c1ccc(-c2ccccc2)cc1)c1ccc(O)c(C(=O)Nc2cccc(C(F)(F)F)c2)c1 [BPAmF, reference compound]	0.84 µg/mL (≈ 1.82 µM)
N#Cc1cccc(NC(=O)c2cc(C(=O)c3cccc4ccccc34)ccc2O)c1 [NA1mC]	1.1 µg/mL (≈ 2.8 µM)
O=C(Nc1cccc(C(F)(F)F)c1)c1cc(C(=O)c2cccc3ccccc23)ccc1O [NA1mF]	0.45 µg/mL (≈ 1.03 µM)

Each compound was assayed on Str. pyo (assay: Mean Streptococcus MIC). Conditions: Streptococcus; Table 5, mean.
Assay type: cell-based
Protocol: as §1, §2, §3

SMILES	MIC
N#Cc1cccc(NC(=O)c2cc(C(=O)c3cccc4ccccc34)ccc2O)c1 [NA1mC]	16.7 µg/mL (≈ 42.5 µM)
O=C(Nc1cccc(C(F)(F)F)c1)c1cc(C(=O)c2cccc3ccccc23)ccc1O [NA1mF]	1 µg/mL (≈ 2.3 µM)

Each compound was assayed on Str. pn. R (assay: Mean Streptococcus MIC). Conditions: Streptococcus; Table 5, mean; strain resistant to penicillin and erythromycin.
Assay type: cell-based
Protocol: as §1, §2, §3

SMILES	MIC
CCCCc1ccc(C(=O)c2ccc(O)c(C(=O)Nc3cccc(C(F)(F)F)c3)c2)cc1 [BBAmF, reference compound]	> 50 µg/mL
N#Cc1cccc(NC(=O)c2cc(C(=O)c3ccc(-c4ccccc4)cc3)ccc2O)c1 [BPAmC, reference compound]	> 50 µg/mL
O=C(c1ccc(-c2ccccc2)cc1)c1ccc(O)c(C(=O)Nc2cccc(C(F)(F)F)c2)c1 [BPAmF, reference compound]	> 50 µg/mL
N#Cc1cccc(NC(=O)c2cc(C(=O)c3cccc4ccccc34)ccc2O)c1 [NA1mC]	12.5 µg/mL (≈ 31.9 µM)
O=C(Nc1cccc(C(F)(F)F)c1)c1cc(C(=O)c2cccc3ccccc23)ccc1O [NA1mF]	0.78 µg/mL (≈ 1.79 µM)
